Entries after “also recorded” stand apart in the source; their conditions may differ.
How the values were obtained:
mutant EGFR kinase = assay: Enzymatic and cellular assays of EGFR kinase inhibition; assay type: biochemical
[1] = system: human non-small cell lung cancer cell; assay: Non-small cell lung cancer cell proliferation in vitro; assay type: cell-based
[2] = system: human non-small cell lung cancer cell; assay: Non-small cell lung cancer cell proliferation in vivo
[3] = Aqueous solubility: slurries in deionised water, HPLC; assay type: physicochemical; details: slurry in deionised water shaken ca. 24 hours
Protocol: Slurries of all each polymorphic form were created in deionised water and shaken for ca. 24 hours. The resulting solid was then analysed by HPLC to determine the concentration of material dissolved.

[4] = Dynamic vapour sorption (DVS) with post DVS XRPD; assay type: physicochemical
Protocol: For dynamic vapour sorption (DVS), approximately 10 mg of sample was placed into a wire mesh vapour sorption balance pan and loaded into a DVS-1 dynamic vapour sorption balance by Surface Measurement Systems. The sample was subjected to a ramping profile from 20-90% relative humidity (RH) at 10% increments, maintaining the sample at each step until a stable weight had been achieved (99.5% step completion). After completion of the sorption cycle, the sample was dried using the same procedure, but all the way down to 0% RH and finally taken back to the starting point of 20% RH. The weight change during the sorption/desorption cycles were plotted, allowing for the hygroscopic nature of the sample to be determined.

[5] = Stability at 40° C./75% RH for 1 week and 2 weeks (XRPD and HPLC); assay type: physicochemical; details: open container
Protocol: Samples of each form were exposed to an environment of 40° C./75% RH for 1 week and 2 week periods to determine stability. Resulting solids were analysed by XRPD and HPLC to establish if any changes had occurred.

[6] = Competitive slurries at ambient and 60° C. (polymorph stability studies); assay type: physicochemical; details: slurrying at ambient and 60° C.
Protocol: The results from the competitive slurries carried out at ambient (ca. 22° C.) and 60° C. are tabulated below.

[7] = XRPD after heating or drying (solid form conversion); assay type: physicochemical; details: heated to 115° C.
Protocol: X-ray powder diffraction (XRPD) analysis was carried out on a Siemens D5000, scanning the samples between 3 and 30 or 50° 2-theta. For samples <100 mg, ca. 5-10 mg of sample was gently compressed onto a glass slide which fitted into the sample holder. For samples >100 mg, ca. 100 mg of sample was gently compressed into a plastic sample holder, so that the sample surface was smooth and just above the level of the sample holder. Measurements were made as follows: In order to determine the relationship between Forms A and B, a sample of Form B was heated to 120° C. and then XRPD analysis was carried out. […] To determine whether Form C remains the same after losing the solvent present, a sample of Form C was heated to 120° C. (i.e., just past the temperature at which the solvent is removed) and then XRPD analysis was carried out. […] In order to determine whether Form E remains the same after losing the solvent present, a sample of Form E was heated to 120° C. (i.e., just past the temperature at which the solvent is lost) and then XRPD analysis was carried out. […] In order to determine whether Form F remains the same after losing the solvent present, a sample of Form F was heated to 120° C. (i.e., just past the temperature at which the solvent is lost) and then XRPD analysis was carried out. […] To examine whether Form H changes to Form A after heating to 115° C. (point after the solvent loss), the Form H material was heated to 115° C. and XRPD analysis and DSC analysis were then carried out. […] The DSC analysis (FIG. 49) indicated overlapping endotherms between ca. 115-135° C., followed by an exotherm at peak 143.9° C., likely indicating a polymorphic transition. A final endotherm was present at onset 202.7° C. (peak 206.6° C.) corresponding with the Form A melt.

[8] = TGA of dehydrated material after standing on the bench (water pick-up); assay type: physicochemical; details: heated to 115° C., then on the bench ca. 1 hour at ambient
Protocol: To test whether Form H picks up water after desolvating/dehydrating the material by heating to 115° C., a further test was carried out whereby Form H was heated to 115° C. in a TGA pan. The sample was then removed from the TGA pan and allowed to sit on the bench for ca. 1 hour. After 1 hour, another TGA was carried out up to 115° C. […] (FIG. 51).

[9] = 7 day stability studies of Form I at 25° C., 80° C., 40° C./75% RH (open and closed); assay type: physicochemical
Protocol: Approximately 15 mg of Form I was placed separately into vials and then exposed to 25° C., 80° C. and 40° C./75% RH environments (open and closed vials) for 1 week to determine stability. The resulting solids were analysed by XRPD and HPLC to establish if any changes had occurred. Results are presented in Tables 2 and 3 and FIGS. 62 and 63.

[10] = Thermodynamic solubility studies at various pH; assay type: physicochemical; details: for solubility at 24 h: thermodynamic from solid
Protocol: Slurries of Form I were created in media of various pH (pH 1; pH 3; pH 4.5 and pH 6.6) and shaken for ca. 24 hours. After 24 hours, the slurries were filtered and the solution analysed by HPLC in order to determine the solubility at the various pH levels. For the buffer solutions, KCl/HCl was used for pH 1 and citrate/phosphate combinations for pH 3, 4.5 and 6.6 (10 mM). The pH of the solutions was also measured prior to HPLC analysis. XRPD analysis was carried out on the remaining solids after 24 hours of shaking.

[11] = closed container, 40° C./75% RH

With `C=CC(=O)Nc1cccc(Nc2nc(Nc3ccc(N4CCN(C(C)=O)CC4)cc3OC)ncc2C(F)(F)F)c1` [Compound 1, N-(3-(2-(4-(4-acetylpiperazin-1-yl)-2-methoxyphenylamino)-5-(trifluoromethyl)pyrimidin-4-ylamino)phenyl)acrylamide] the “selectivity for mutant EGFR as compared to wild-type EGFR” value (mutant EGFR kinase) was “selective inhibitor of at least one mutation of EGFR”, the “inhibition of mutant EGFR kinase” value (mutant EGFR kinase; enzymatic and cellular assays) was “selective covalent, irreversible inhibition of mutant EGFR kinase” and the “inhibition of cell proliferation” value [1] was “inhibit human non-small cell lung cancer cell proliferation”. The “inhibition of cell proliferation” value [2] was “inhibit human non-small cell lung cancer cell proliferation”.
For `C=CC(=O)Nc1cccc(Nc2nc(Nc3ccc(N4CCN(C(C)=O)CC4)cc3OC)ncc2C(F)(F)F)c1` [Form A, N-(3-(2-(4-(4-acetylpiperazin-1-yl)-2-methoxyphenylamino)-5-(trifluoromethyl)pyrimidin-4-ylamino)phenyl)acrylamide], the “detection by HPLC analysis for the aqueous solubility” value [3] was “could not be detected”, the aqueous solubility ([3]; assessment in words) was “poor” and the “Post DVS XRPD (solid form)” value [4] was “remained Form A”. The “hygroscopicity (DVS)” value [4] was “non-hygroscopic”, the DVS water uptake ([4]; between 20 and 70% RH) was 0.87% and the “HPLC purity after storage” value ([5]; 1 week) was “ca. 97.5%”. For the same compound, the “XRPD analysis after storage” value ([5]; 1 week) was “still be consistent with Form A, with some loss in crystallinity”, the “HPLC purity after storage” value ([5]; 2 week) was “ca. 96.3%” and the “XRPD analysis after storage” value ([5]; 2 week) was “still be consistent with Form A, however, it became poorly crystalline”. The relative polymorph stability [6] was “likely the more stable form in comparison with Form B”.
With `C=CC(=O)Nc1cccc(Nc2nc(Nc3ccc(N4CCN(C(C)=O)CC4)cc3OC)ncc2C(F)(F)F)c1` [Form H, N-(3-(2-(4-(4-acetylpiperazin-1-yl)-2-methoxyphenylamino)-5-(trifluoromethyl)pyrimidin-4-ylamino)phenyl)acrylamide] the XRPD after heating [7] was “still corresponded with Form H, with some loss in crystallinity” and the “water pick-up of desolvated/dehydrated material” value [8] was “picked up water upon standing at ambient conditions”.
With `C=CC(=O)Nc1cccc(Nc2nc(Nc3ccc(N4CCN(C(C)=O)CC4)cc3OC)ncc2C(F)(F)F)c1` [Form I, N-(3-(2-(4-(4-acetylpiperazin-1-yl)-2-methoxyphenylamino)-5-(trifluoromethyl)pyrimidin-4-ylamino)phenyl)acrylamide] the “Post DVS XRPD (solid form)” value [4] was “remained as Form I”, the “hygroscopicity (DVS)” value [4] was “relatively non-hygroscopic” and the DVS mass uptake ([4]; Cycle 1, sorption 20-90% RH) was “ca. 0.66%”. The “DVS rapid mass loss” value ([4]; Cycle 2, desorption, between 10-0% RH) was “ca. 2.7%”, the DVS mass decrease ([4]; Cycle 2, desorption, between 90-10% RH) was “ca. 1.2%” and the DVS moisture uptake ([4]; Cycle 3, sorption, between 0-20% RH) was “ca. 2.8%”. For the same compound, the “Purity after 1 week” value ([9]; closed container, 25° C.) was 99.4%, the “XRPD Analysis after 1 week” value ([9]; closed container, 25° C.) was “Form I” and the “Purity after 1 week” value [9, 11] was 99.3%. For the same compound, the “XRPD Analysis after 1 week” value [9, 11] was “Form I; also recorded: (some loss in crystallinity)”, the “Purity after 1 week” value ([9]; closed container, 80° C.) was 99.2% and the “XRPD Analysis after 1 week” value ([9]; closed container, 80° C.) was “Form I; also recorded: (some loss in crystallinity)”. The “Purity after 1 week” value ([9]; open container, 25° C.) was 98.7%, the “XRPD Analysis after 1 week” value ([9]; open container, 25° C.) was “Form I” and the “Purity after 1 week” value ([9]; open container, 40° C./75% RH) was 98.9%. The “XRPD Analysis after 1 week” value ([9]; open container, 40° C./75% RH) was “Form I”, the “Purity after 1 week” value ([9]; open container, 80° C.) was 98.5% and the “XRPD Analysis after 1 week” value ([9]; open container, 80° C.) was “Form I; also recorded: (some loss in crystallinity)”. For the same compound, the solubility at 24 h ([10]; aqueous buffer, buffer pH 3 (citrate/phosphate), pH prior to analysis 2.26, ca. 24 hours) was 23 µg/mL, the solubility at 24 h ([10]; aqueous buffer, buffer pH 4.5 (citrate/phosphate), pH prior to analysis 3.38, ca. 24 hours) was 2 µg/mL and the Solubility ([10]; buffer pH 6.6 (citrate/phosphate), pH prior to analysis 5.04, ca. 24 hours) was “Not detected”. For the same compound, the “XRPD of solids remaining after thermodynamic solubility experiment” value ([10]; pH 1, after 24 hours) was “mixture of Form I and possibly the HCl salt”, the “XRPD of solids remaining after thermodynamic solubility experiment” value ([10]; pH 6.6, 4.5 and 3.0, after 24 hours) was “remained as Form I” and the solubility at 24 h ([10]; simulated gastric fluid, buffer pH 1 (KCl/HCl), pH prior to analysis 0.95, ca. 24 hours) was 3270 µg/mL.
